Reference: PubChem BioAssay AID602284 (Broad Institute, 2012)
The source made the active and inactive calls.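 How the source made its calls: active means every test run fits a half-maximal inhibitory dose no higher than twice its top dose tested; inconclusive means runs disagree, flat partial inhibition, or poor curve fit; inactive means the rest.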

Molecular target: Cyclin-dependent kinase 5 activator 1 (Homo sapiens) + Cyclin-dependent kinase 5 (Homo sapiens) (UniProt Q15078+Q00535)
Assay: inhibition of CDK5-p35 phosphorylation activity – biochemical, ADP-Glo luminescence, dry powder samples, dose response (AID 602284)
Details: histone H1 peptide

Chain of Cyclin-dependent kinase 5 activator 1 (Homo sapiens) + Cyclin-dependent kinase 5 (Homo sapiens) (Q00535 whole entry, looked up): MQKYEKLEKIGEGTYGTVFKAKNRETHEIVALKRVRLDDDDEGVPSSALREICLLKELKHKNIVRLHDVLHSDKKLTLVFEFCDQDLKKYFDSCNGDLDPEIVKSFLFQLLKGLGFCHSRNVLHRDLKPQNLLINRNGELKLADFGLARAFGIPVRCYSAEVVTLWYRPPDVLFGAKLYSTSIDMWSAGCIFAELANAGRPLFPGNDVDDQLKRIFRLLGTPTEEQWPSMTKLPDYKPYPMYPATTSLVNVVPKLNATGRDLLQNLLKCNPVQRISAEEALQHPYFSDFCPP
Chain of Cyclin-dependent kinase 5 activator 1 (Homo sapiens) + Cyclin-dependent kinase 5 (Homo sapiens) (Q15078 whole entry, looked up): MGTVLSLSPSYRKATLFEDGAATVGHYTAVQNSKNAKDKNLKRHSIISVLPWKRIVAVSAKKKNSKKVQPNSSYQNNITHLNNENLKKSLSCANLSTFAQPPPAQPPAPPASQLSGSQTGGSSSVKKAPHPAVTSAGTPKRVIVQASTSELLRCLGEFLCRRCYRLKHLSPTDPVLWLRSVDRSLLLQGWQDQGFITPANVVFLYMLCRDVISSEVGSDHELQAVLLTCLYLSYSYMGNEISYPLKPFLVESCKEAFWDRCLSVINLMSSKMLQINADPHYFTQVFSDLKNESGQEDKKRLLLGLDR

Row | activity change, negative = inhibition (at 30 µM (top of the series)) | SMILES | further results
1 | inactive | O=C(c1ccc(Cl)cc1)N1CCN(c2ccc(C(F)(F)F)cn2)CC1 | 
2 |  | CCCn1c(NC(=O)c2cccc(S(=O)(=O)N(CC)CC)c2)nc2ccccc21 | AC50: 2.95 µM
3 |  | c1ccc(N2CCNCC2)nc1 | activity change, negative = inhibition (at 0.38 µM (top of the series)): inactive
4 | inactive | N#Cc1ccc(C(=O)N2CCN(c3ccccn3)CC2)cc1 | 
5 | inactive | O=C(c1ccc(Cl)cc1)N1CCN(c2cccc(C(F)(F)F)n2)CC1 | 
6 | inactive | COc1ccc(C(=O)N2CCN(c3ccccn3)CC2)cc1 | 
7 | inactive | O=C(c1ccc(Cl)cc1)N1CCN(c2ccccn2)CC1 | 
8 | inactive | COc1ccnc(N2CCN(C(=O)c3ccc(Cl)cc3)CC2)c1 | 
9 | inactive | CC(C)C(=O)N1CCN(c2ccccn2)CC1 | 
10 | inactive | N#Cc1cccnc1N1CCN(C(=O)c2ccc(Cl)cc2)CC1 | 
11 | inactive | O=C(c1cccc(Cl)c1)N1CCN(c2ccccn2)CC1 | 
12 | inactive | Cc1ccc(N2CCN(C(=O)c3ccc(Cl)cc3)CC2)nc1 | 
13 | inactive | O=C(c1ccc(Cl)cc1)N1CCN(c2ncccc2C(F)(F)F)CC1 | 
14 | inactive | Cc1ccnc(N2CCN(C(=O)c3ccc(Cl)cc3)CC2)c1 | 
15 |  | CCCn1c(NC(=O)c2cccc(S(=O)(=O)N(C)C)c2)nc2ccccc21 | AC50: 10.2 µM
16 | inactive | CCCCC(=O)N1CCN(c2ccccn2)CC1 | 
17 | inactive | COCCC(=O)N1CCN(c2ccccn2)CC1 | 

Row | activity change, negative = inhibition (at 30 µM (top of the series)) | SMILES | further results
18 | inactive | Cc1ccc(C(=O)N2CCN(c3ccccn3)CC2)cc1 | 
19 | inactive | CCOc1cc(C(=O)N2CCN(c3ccccn3)CC2)cc(OCC)c1OCC | 
20 |  | CCCn1c(NC(=O)c2cccc(S(=O)(=O)N3CCCCC3)c2)nc2ccccc21 | AC50: 13.5 µM
21 | inactive | CCCn1c(NC(=O)c2ccc(OC)c(S(=O)(=O)N3CCCC3)c2)nc2ccccc21 | 
22 | inactive | O=C(C1CCCCC1)N1CCN(c2ccccn2)CC1 | 
23 | inactive | Cc1cccc(N2CCN(C(=O)c3ccc(Cl)cc3)CC2)n1 | 
24 | inactive | COc1cccnc1N1CCN(C(=O)c2ccc(Cl)cc2)CC1 | 
25 | inactive | CCCn1c(NC(=O)c2ccc(Cl)c(S(=O)(=O)N3CCCC3)c2)nc2ccccc21 | 
26 | inactive | O=C(c1ccc(F)cc1)N1CCN(c2ccccn2)CC1 | 
27 | inactive | COc1cccc(C(=O)N2CCN(c3ccccn3)CC2)c1 | 
28 | inactive | N#Cc1ccc(N2CCN(C(=O)c3ccc(Cl)cc3)CC2)nc1 | 
29 |  | CCn1c(NC(=O)c2cccc(S(=O)(=O)NC)c2)nc2ccccc21 | AC50: 29.1 µM
30 |  | CC(C)(C)n1c(NC(=O)c2cccc(S(C)(=O)=O)c2)nc2ccccc21 | AC50: 12.3 µM
31 | inactive | O=C(c1ccccc1Cl)N1CCN(c2ccccn2)CC1 | 
32 | inactive | COc1cc(C(=O)N2CCN(c3ccccn3)CC2)cc(OC)c1OC | 
33 |  | O=C(c1ccccc1)N1CCN(c2ccccn2)CC1 | activity change, negative = inhibition (at 10 µM (top of the series)): inactive
34 | inactive | COc1cc(C(=O)N2CCN(c3ccccc3)CC2)cc(OC)c1OC | 
